Assay results as given in US8735426B2, “Vanilloid receptor ligands, pharmaceutical compositions containing them, process for making them and use thereof for treating pain and other conditions” (Gruenenthal GmbH, priority 2007, dated 2014).

Columns and labels:
Assay type in all cases: cell-based
[1] = target: T1, vanilloid receptor 1 (VR1/TRPV1) (Rattus norvegicus, UniProt O35433); test: Functional FLIPR Ca2+ influx assay on vanilloid receptor 1, capsaicin stimulus (Pharmacological Method I)
T1 construct: The vertebral column is removed from decapitated rats; from tissue; host or cells: primary cells from rat dorsal root ganglia (DRG)

vanilloid receptor (VR1) = target: T2, vanilloid receptor (VR1) (Homo sapiens, UniProt Q8NER1); test: Functional FLIPR Ca2+ influx assay in CHO-K1 cells transfected with the VR1 gene, capsaicin stimulus (Pharmacological Method II); settings: read-out: inhibition (in percent), Human Capsaicin
T2 construct: expressed in transfected cells; host or cells: CHO-K1 cells (ECACC), stably transfected

[2] = target: vanilloid receptor 1 (VR1/TRPV1-Receptor) (Homo sapiens, UniProt Q8NER1); test: VR1 functional assay following pH-stimulus; settings: read-out: inhibition (in percent), Human following pH-stimulus
Sequence of vanilloid receptor 1 (VR1/TRPV1-Receptor) (Q8NER1 whole entry): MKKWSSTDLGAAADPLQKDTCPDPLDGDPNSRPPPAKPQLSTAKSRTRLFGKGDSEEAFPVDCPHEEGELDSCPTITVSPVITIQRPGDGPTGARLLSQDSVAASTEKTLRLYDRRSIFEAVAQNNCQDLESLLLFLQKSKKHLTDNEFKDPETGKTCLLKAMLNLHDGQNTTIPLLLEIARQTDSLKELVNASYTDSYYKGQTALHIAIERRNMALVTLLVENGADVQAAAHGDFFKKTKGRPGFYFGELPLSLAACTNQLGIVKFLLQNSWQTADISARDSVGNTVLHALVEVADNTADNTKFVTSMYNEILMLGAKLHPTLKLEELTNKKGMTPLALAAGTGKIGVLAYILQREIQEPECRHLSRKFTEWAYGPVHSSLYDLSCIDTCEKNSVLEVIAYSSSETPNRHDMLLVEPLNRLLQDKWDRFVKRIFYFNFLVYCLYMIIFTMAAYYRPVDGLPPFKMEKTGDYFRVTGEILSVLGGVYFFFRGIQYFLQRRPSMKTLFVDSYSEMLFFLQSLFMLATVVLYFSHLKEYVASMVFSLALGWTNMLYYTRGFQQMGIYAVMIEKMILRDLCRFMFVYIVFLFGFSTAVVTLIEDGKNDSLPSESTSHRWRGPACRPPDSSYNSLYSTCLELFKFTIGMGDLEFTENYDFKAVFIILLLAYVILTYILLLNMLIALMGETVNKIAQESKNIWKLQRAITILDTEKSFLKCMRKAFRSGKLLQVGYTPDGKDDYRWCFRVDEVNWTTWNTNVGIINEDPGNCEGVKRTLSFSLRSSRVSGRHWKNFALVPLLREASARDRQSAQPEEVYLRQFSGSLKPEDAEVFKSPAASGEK

T2 sequence (Q8NER1 whole entry): as above
T1 sequence (O35433 whole entry): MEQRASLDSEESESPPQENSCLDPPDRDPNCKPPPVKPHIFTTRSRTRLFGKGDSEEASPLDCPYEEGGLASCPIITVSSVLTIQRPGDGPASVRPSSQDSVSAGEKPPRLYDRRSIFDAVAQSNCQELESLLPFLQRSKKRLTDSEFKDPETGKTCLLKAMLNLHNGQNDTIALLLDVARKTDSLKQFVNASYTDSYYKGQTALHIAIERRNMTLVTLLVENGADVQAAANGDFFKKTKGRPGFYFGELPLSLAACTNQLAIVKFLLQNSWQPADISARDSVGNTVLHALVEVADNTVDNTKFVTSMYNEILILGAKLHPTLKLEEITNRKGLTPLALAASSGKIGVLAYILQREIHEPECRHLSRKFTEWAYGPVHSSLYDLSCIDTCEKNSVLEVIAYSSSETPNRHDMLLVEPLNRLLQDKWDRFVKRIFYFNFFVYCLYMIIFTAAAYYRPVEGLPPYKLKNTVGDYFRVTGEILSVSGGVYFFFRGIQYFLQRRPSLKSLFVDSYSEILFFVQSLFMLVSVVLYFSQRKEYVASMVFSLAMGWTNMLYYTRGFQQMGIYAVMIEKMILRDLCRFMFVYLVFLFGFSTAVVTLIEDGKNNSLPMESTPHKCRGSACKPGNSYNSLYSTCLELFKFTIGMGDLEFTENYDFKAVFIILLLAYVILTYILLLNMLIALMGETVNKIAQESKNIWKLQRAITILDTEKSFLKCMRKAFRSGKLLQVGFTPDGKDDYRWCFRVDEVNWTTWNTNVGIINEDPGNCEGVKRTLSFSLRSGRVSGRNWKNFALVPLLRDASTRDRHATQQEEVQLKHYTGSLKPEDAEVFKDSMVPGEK

| Ki ([1]; capsaicin stimulus) | inhibition at 0.1 µM (vanilloid receptor (VR1); @ 0.1 μM) | inhibition at 1 µM (vanilloid receptor (VR1)) | inhibition at 5 µM (vanilloid receptor (VR1)) | inhibition at 5 µM [2] | inhibition at 10 µM [2] | inhibition at 1 µM ([1]; @ 1 μM, capsaicin, read-out: inhibition (in percent), Rat Capsaicin) | inhibition at 5 µM ([1]; @ 5 μM, capsaicin, read-out: inhibition (in percent), Rat Capsaicin) | SMILES |
| --- | --- | --- | --- | --- | --- | --- | --- | --- |
| 0.117 µM | 0% | 20% | 77% | 4% | 33% |  |  | CS(=O)(=O)Nc1ccc(C2(C(=O)NCc3ccc(C(F)(F)F)nc3SC3CCCCC3)CCCC2)cc1F [Example 14, N-((2-(Cyclohexylthio)-6-(trifluoromethyl)pyridin-3-yl)methyl)-1-(3-fluoro-4-(methylsulfonamido)phenyl)cyclopentanecarboxamide] |
|  |  | 0% | 33% | 7% | 32% | 7% | 69% | CC1CCN(c2nc(C(F)(F)F)ccc2CNC(=O)C2(c3ccc(NS(C)(=O)=O)c(F)c3)CCCCC2)CC1 [Example 15, 1-(3-Fluoro-4-(methylsulfonamido)phenyl)-N-((2-(4-methylpiperidin-1-yl)-6-(trifluoromethyl)pyridin-3-yl)methyl)cyclohexanecarboxamide] |
